The values that follow are results of earlier work, collected in US11039615B2, “Methods of processing chlorhexidine-containing polymerizable compositions and antimicrobial articles formed thereby” (entrotech life sciences, inc., priority 2014, dated 2021).

Where only a bound is given, the exact number is not on record here.

For this data set the following is noted: documented in Ranganathan 1996.

For the compound `[H]/N=C(\N/C(=N/[H])NCCCCCCNC(=N)NC(=N)Nc1ccc(Cl)cc1)Nc1ccc(Cl)cc1` [chlorhexidine], the “temperature at which chlorhexidine decomposes to PCA” value was at least 40 °C.
